Test results: the supplement of paper PMC10307832

What was measured:
Assay in all cases: relative viability (nuclei count vs DMSO), 5 days (fraction); higher = more cells survive
Bemcentinib + Trametinib = compound: Nc1nc(Nc2ccc3c(c2)CC[C@@H](N2CCCC2)CC3)nn1-c1cc2c(nn1)-c1ccccc1CCC2 [Bemcentinib] + CC(=O)Nc1cccc(-n2c(=O)n(C3CC3)c(=O)c3c(Nc4ccc(I)cc4F)n(C)c(=O)c(C)c32)c1 [Trametinib] (partner 0.02 µM)
In short: (§1)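 Lung cancer cell lines were seeded in 1536-well plates and dosed by pin tool the next day, with either a single drug or a fixed anchor-drug dose combined with five library-drug doses (not always all listed) spaced in √10 steps. Five days later, one step fixed the cells and stained their nuclei (final 0.05% Triton X-100, 1% formaldehyde, 1 ug/ml Hoechst), and nuclei were counted on 4× images. Relative viability is the nuclei count in treated wells divided by the count in vehicle wells, and each value is the median of duplicate plates.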

Bemcentinib + Foretinib = compound: Nc1nc(Nc2ccc3c(c2)CC[C@@H](N2CCCC2)CC3)nn1-c1cc2c(nn1)-c1ccccc1CCC2 [Bemcentinib] + COc1cc2c(Oc3ccc(NC(=O)C4(C(=O)Nc5ccc(F)cc5)CC4)cc3F)ccnc2cc1OCCCN1CCOCC1 [Foretinib] (partner 0.25 µM)
In short: as §1

Axitinib + Foretinib = compound: CNC(=O)c1ccccc1Sc1ccc2c(/C=C/c3ccccn3)n[nH]c2c1 [Axitinib] + COc1cc2c(Oc3ccc(NC(=O)C4(C(=O)Nc5ccc(F)cc5)CC4)cc3F)ccnc2cc1OCCCN1CCOCC1 [Foretinib] (partner 0.25 µM)
In short: as §1

Axitinib + Crizotinib = compound: CNC(=O)c1ccccc1Sc1ccc2c(/C=C/c3ccccn3)n[nH]c2c1 [Axitinib] + C[C@@H](Oc1cc(-c2cnn(C3CCNCC3)c2)cnc1N)c1c(Cl)ccc(F)c1Cl [Crizotinib] (partner 1 µM)
In short: as §1

NCI-H650
relative viability (Bemcentinib + Trametinib; first compound 0.04 µM): 1.08
relative viability (Bemcentinib + Trametinib; first compound 0.1265 µM): 0.993
relative viability (Bemcentinib + Trametinib; first compound 0.4 µM): 0.963
relative viability (Bemcentinib + Trametinib; first compound 1.265 µM): 0.947
relative viability (Bemcentinib + Trametinib; first compound 4 µM): 0.966
relative viability (Bemcentinib + Foretinib; first compound 0.04 µM): 0.975
relative viability (Bemcentinib + Foretinib; first compound 0.1265 µM): 1.16
relative viability (Bemcentinib + Foretinib; first compound 0.4 µM): 1.04
relative viability (Bemcentinib + Foretinib; first compound 1.265 µM): 1.02
relative viability (Bemcentinib + Foretinib; first compound 4 µM): 1.05
relative viability (Axitinib + Foretinib; first compound 0.005 µM): 1.08
relative viability (Axitinib + Foretinib; first compound 0.01581 µM): 1.12
relative viability (Axitinib + Foretinib; first compound 0.05 µM): 0.953
relative viability (Axitinib + Foretinib; first compound 0.1581 µM): 0.984
relative viability (Axitinib + Foretinib; first compound 0.5 µM): 1.07
relative viability (Axitinib + Crizotinib; first compound 0.005 µM): 0.859
relative viability (Axitinib + Crizotinib; first compound 0.01581 µM): 0.745
relative viability (Axitinib + Crizotinib; first compound 0.05 µM): 0.779
relative viability (Axitinib + Crizotinib; first compound 0.1581 µM): 0.782
relative viability (Axitinib + Crizotinib; first compound 0.5 µM): 0.903
